Measured values published in patent publication US5770617A, “Terbenzimidazoles useful as antifungal agents” (Rutgers, The State University of New Jersey, priority 1997, dated 1998).
Entries after “also recorded” stand apart in the source; their conditions may differ.

Target: T1, calf thymus topoisomerase I (Bos taurus, UniProt F1MN93)
T1 construct: DNA topoisomerase I was purified from calf thymus gland as reported previously; from tissue; host or cells: calf thymus gland
T1 sequence (F1MN93 1-767): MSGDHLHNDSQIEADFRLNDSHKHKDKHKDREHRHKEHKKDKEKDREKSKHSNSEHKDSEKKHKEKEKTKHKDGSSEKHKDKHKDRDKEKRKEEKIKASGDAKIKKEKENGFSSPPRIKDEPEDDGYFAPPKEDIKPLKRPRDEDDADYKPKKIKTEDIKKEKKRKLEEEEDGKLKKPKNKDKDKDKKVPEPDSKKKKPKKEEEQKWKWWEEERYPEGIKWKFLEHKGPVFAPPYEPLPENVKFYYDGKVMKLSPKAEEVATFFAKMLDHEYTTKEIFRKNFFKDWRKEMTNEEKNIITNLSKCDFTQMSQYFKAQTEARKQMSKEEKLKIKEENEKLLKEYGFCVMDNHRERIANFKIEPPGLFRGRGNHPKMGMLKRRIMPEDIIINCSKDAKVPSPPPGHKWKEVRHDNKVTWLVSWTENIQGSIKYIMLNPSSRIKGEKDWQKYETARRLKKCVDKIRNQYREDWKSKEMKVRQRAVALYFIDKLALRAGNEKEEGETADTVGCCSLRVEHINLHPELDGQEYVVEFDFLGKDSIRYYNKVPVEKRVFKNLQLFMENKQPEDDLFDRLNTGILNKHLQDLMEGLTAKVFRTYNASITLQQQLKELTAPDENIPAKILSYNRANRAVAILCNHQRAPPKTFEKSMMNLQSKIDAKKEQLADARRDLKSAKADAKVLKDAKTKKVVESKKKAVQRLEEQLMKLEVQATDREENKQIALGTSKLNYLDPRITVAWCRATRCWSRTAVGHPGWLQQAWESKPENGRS
Assay: Topoisomerase I-mediated DNA cleavage assay (calf thymus enzyme)
Type: biochemical
Conditions: concentration relative to Hoechst 33342 (arbitrarily 1) producing the same cleavage on plasmid DNA; calf thymus topoisomerase I
From the text: A. Topoisomerase I-Mediated DNA Cleavage Assays
DNA topoisomerase I was purified from calf thymus gland as reported previously by B. D. Halligan et al., J. Biol. Chem., 260, 2475 (1985).
Plasmid YEpG was also purified by the alkali lysis method followed by phenol deproteination and CsCl/ethidium isopycnic centrifugation as described by T. Maniatis et al., Molecular Cloning, A Laboratory Manual, Cold Spring Harbor Labs, N.Y. (1982) at pages 149-185. The end-labeling of the plasmid was accomplished as previously described by L. F. Liu et al., J. Biol. Chem., 258, 15365 (1983). The cleavage assays were performed as previously reported by A. Y. Chen et al., Cancer Res., 53, 1332 (1993). Human topoisomerase I was isolated as a recombinant fusion protein using a T7 expression system.

Topo I-mediated DNA cleavage (REC, Relative Effective Concentration)	Structure (SMILES)
1	Clc1ccc2[nH]c(-c3ccc4[nH]c(-c5ccc6[nH]cnc6c5)nc4c3)nc2c1 [JSKIV-68, 5-Chloro-2-[2'-(benzimidazol-5"-yl)benzimidazol-5'-yl]-benzimidazole]
10	Clc1ccc(-c2ccc3[nH]c(-c4ccc5[nH]c(-c6ccc7[nH]cnc7c6)nc5c4)nc3c2)cc1 [JSKIV-47, 5-(p-Chlorophenyl)-2-[2'-(benzimidazol-5"-yl)benzimidazol-5'-yl]-benzimidazole]
1000	N#Cc1ccc2[nH]c(-c3ccc4[nH]cnc4c3)nc2c1 [Compound 19, 5-Cyano-2-(benzimidazol-5'-yl)benzimidazole]
3.3	c1ccc(-c2ccc3[nH]c(-c4ccc5[nH]c(-c6ccc7[nH]cnc7c6)nc5c4)nc3c2)nc1 [Compound 14, 5-(2-Pyridyl)-2-[2'-(benzimidazol-5"-yl)benzimidazol-5'-yl]benzimidazole]
2	c1cncc(-c2ccc3[nH]c(-c4ccc5[nH]c(-c6ccc7[nH]cnc7c6)nc5c4)nc3c2)c1 [Compound 15, 5-(3-Pyridyl)-2-[2'-(benzimidazol-5"-yl)benzimidazol-5'-yl]benzimidazole]
2	c1cc(-c2ccc3[nH]c(-c4ccc5[nH]c(-c6ccc7[nH]cnc7c6)nc5c4)nc3c2)ccn1 [Compound 16, 5-(4-Pyridyl)-2-[2'-(benzimidazol-5"-yl)benzimidazol-5'-yl]benzimidazole]

Structure (SMILES)	Topo I-mediated DNA cleavage (REC, Relative Effective Concentration)
c1ccc2[nH]c(-c3ccc4[nH]c(-c5ccc6[nH]cnc6c5)nc4c3)nc2c1 [Compound 10, 2-[2'-(Benzimidazol-5"-yl)benzimidazol-5'-yl]benzimidazole]	1.1

Target: T2, Aspergillus topoisomerase I (Aspergillus nidulans, UniProt Q5BGS7)
T2 construct: about 105 kDa by phosphate transfer
T2 sequence (Q5BGS7 1-871): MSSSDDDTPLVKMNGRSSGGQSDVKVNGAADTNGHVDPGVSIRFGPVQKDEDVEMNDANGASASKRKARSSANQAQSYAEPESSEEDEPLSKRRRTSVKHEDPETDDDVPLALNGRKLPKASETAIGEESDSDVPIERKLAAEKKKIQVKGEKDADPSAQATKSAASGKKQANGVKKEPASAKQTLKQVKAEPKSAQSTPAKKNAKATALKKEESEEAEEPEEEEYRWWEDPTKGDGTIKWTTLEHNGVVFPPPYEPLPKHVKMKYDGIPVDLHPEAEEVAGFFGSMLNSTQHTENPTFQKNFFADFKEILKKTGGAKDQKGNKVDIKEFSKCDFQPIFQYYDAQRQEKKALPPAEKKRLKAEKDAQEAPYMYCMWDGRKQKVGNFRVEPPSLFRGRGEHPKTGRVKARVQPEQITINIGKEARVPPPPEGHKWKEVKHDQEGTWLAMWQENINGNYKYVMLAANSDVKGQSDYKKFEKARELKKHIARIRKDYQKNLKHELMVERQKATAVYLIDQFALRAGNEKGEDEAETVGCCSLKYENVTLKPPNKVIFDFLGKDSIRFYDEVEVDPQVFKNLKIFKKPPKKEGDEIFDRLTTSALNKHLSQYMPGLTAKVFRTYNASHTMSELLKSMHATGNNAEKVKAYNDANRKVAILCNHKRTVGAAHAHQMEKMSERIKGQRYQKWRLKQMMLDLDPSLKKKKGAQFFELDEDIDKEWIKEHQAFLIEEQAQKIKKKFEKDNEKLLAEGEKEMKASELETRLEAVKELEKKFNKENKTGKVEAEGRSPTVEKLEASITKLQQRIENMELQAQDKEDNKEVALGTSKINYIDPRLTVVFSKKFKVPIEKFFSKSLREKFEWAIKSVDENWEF
Assay: Topoisomerase I cleavage assay, Aspergillus enzyme
Type: biochemical
Conditions: DNA cleavage assay
Method: Two liters of YG medium (0.5% yeast extract and 2% glucose) were inoculated with approximately 5×10^8 conidia/ml. After 16 hours of growth at 37° C., the mycelia were collected, washed with Buffer I (50 mM Tris-HCl, pH 7.7, 1 mM EDTA, 1 mM EGTA, 10% glycerol, 1 mM phenylmethylsulfonyl fluoride and 1 mM 2-mercaptoethanol), and quickly chilled in liquid nitrogen. The frozen mycelia (approximately 20 grams) were ground to powder and resuspended in 300 ml of Buffer I. The lysate was centrifuged at 10K rpm in a Sorval HB3 Rotor for 15 minutes to remove cell debris. The supernatant was made 6% in polyethylene glycol (v/v) and 1M NaCl. After one hour on ice with gentle stirring, the solution was centrifuged at 14K rpm in a Sorvall Rotor for 30 minutes to remove nucleic acids.
Subsequent steps in purification were the same as described previously for purification of recombinant human DNA topoisomerase I (B. Gatto et al., Cancer Res., 56, 2795 (1996)). Briefly, the supernatant was chromatographed directly onto a hydroxyapatite Bio-gel HTP (BioRad Laboratories, Richmond, Calif.) column. Fractions containing relaxation activity were pooled, diluted and then loaded onto a BioRex70 column (BioRad Laboratories, Richmond, Calif.). The column was developed with a linear gradient from 0.2 to 1M KCl. The peak fractions were pooled and dialyzed overnight at 4° C. against 30 mM potassium phosphate, 50% glycerol (v/v), 0.5 mM EDTA, and 1 mM DTT. Recombinant human topoisomerase I was purified from Escherichia coli BL21 (DE3) harboring PET1B as described previously (Gatto et al., Cancer Res., 56, 2795 (1996)).
DNA topoisomerase I cleavage assays were performed as described by Y.-H. Hsiang et al., J. Biol. Chem., 260, 14873 (1985). YEpG DNA was linearized with BamHI and then 3 '-end-labeled with Klenow polymerase and α[-^32 P]dCTP. Following phenol extraction and ethanol precipitation, the labeled DNA was resuspended in 10 mM Tris, pH 8.0, and 1 mM EDTA. The DNA cleavage assay was done in a reaction mixture (20 μl) containing 40 mM Tris-HCl, pH 7.8, 100 mM KCl, 10 mM MgCl2, 0.5 mM dithiothreitol, 0.5 mM EDTA, 30 μg/ml bovine serum albumin, 20 ng of labeled YEpG DNA, and […] of Aspergillus or human topoisomerase I diluted to various extents. Following incubation at 23° C. for 15 minutes, the reactions were terminated by the addition of SDS (final concentration 1%) and proteinase K (final concentration 200 μg/ml). Proteinase K treatment continued at 37° C. for another 1 hour. The terminated reactions were either alkali-denatured and then loaded (alkaline loading) or loaded directedly in neutral loading buffer (neutral loading) onto a 1% agarose gel in neutral TPE electrophoresis solution. Gel drying and autoradiography were performed as described by Hsiang et al., cited above.

Structure (SMILES)	inhibition (poisoning) of Aspergillus topoisomerase I, in words
COc1ccc(-c2nc3ccc(C(F)(F)F)cc3[nH]2)cc1 [QS/II/50]	None of the mono-benzimidazoles, including QS/II/50, QS/II/51, QS/II/59A, an QS/II/9, exhibited any inhibitory effect
COc1cc2cc3c4cc(OC)c(OC)cc4cc[n+]3c(C)c2cc1OC [coralyne]	completely resistant; also recorded: did not inhibit Aspergillus topoisomerase I to any significant extent
N=C(N)c1ccc(N=NNc2ccc(C(=N)N)cc2)cc1 [Berenil, berenil]	inactive
CCOc1ccc(-c2nc3ccc(-c4nc5cc(CCCN(C)C)ccc5[nH]4)cc3[nH]2)cc1 [compound 2 wherein n is 3]	selective sensitivity

Target: T3, human topoisomerase I (Homo sapiens, UniProt P11387)
T3 construct: made in house; host or cells: Escherichia coli BL21 (DE3) harboring PET1B
T3 sequence (P11387 1-765): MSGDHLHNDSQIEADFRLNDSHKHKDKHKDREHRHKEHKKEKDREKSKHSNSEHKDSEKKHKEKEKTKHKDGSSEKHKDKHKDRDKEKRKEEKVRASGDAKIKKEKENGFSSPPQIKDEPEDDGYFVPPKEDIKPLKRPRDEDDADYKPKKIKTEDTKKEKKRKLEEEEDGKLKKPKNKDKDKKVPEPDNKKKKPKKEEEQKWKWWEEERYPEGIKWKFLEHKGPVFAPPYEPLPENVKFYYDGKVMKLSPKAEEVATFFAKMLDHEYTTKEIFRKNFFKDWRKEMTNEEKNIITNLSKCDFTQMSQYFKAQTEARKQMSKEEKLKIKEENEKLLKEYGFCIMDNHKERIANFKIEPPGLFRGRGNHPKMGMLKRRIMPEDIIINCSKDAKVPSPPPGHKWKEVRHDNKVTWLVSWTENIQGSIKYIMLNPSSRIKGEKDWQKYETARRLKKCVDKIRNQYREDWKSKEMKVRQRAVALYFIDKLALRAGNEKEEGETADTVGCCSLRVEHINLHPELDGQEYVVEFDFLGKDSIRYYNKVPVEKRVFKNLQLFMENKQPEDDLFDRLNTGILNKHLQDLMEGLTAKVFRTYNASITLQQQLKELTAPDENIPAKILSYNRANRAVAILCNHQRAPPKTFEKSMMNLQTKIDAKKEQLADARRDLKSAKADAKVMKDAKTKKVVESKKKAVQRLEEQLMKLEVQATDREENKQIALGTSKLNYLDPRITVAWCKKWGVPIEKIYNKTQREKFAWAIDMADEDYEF
Assay: not given
Conditions: cited from earlier work

Structure (SMILES)	inhibition of human topoisomerase I, in words (known / previously disclosed)
COc1cc2cc3c4cc(OC)c(OC)cc4cc[n+]3c(C)c2cc1OC [coralyne]	highly potent inhibitors
N=C(N)c1ccc(N=NNc2ccc(C(=N)N)cc2)cc1 [Berenil, berenil]	inactive
